# Measured values published in PMC11240139, “Exploring the antitumor potential of novel quinoline derivatives via tubulin polymerization inhibition in breast cancer; design, synthesis and molecular docking” (RSC Advances, 2024).
# Columns and labels:
# CCRF-CEM (leukemia) = assay: NCI-60 SRB cytotoxicity screen; assay type: cell-based; conditions: Homo sapiens, single dose 10 μM, read-out: growth inhibition (GI%)
# HL-60(TB) (leukemia) = assay: NCI-60 SRB cytotoxicity screen; assay type: cell-based; conditions: Homo sapiens, single dose 10 μM, read-out: growth inhibition (GI%)
# K-562 (leukemia) = assay: NCI-60 SRB cytotoxicity screen; assay type: cell-based; conditions: Homo sapiens; K-652 [sic], single dose 10 μM; read-out: growth inhibition (GI%)
# RPMI-8226 (leukemia) = assay: NCI-60 SRB cytotoxicity screen; assay type: cell-based; conditions: Homo sapiens; RPMI-8226, single dose 10 μM; read-out: growth inhibition (GI%)
# [1] = tested on: A549/ATCC (non-small cell lung cancer); assay: NCI-60 SRB cytotoxicity screen; assay type: cell-based; conditions: Homo sapiens, single dose 10 μM, read-out: growth inhibition (GI%)
# [2] = tested on: EKVX (non-small cell lung cancer); assay: NCI-60 SRB cytotoxicity screen; assay type: cell-based; conditions: Homo sapiens, single dose 10 μM, read-out: growth inhibition (GI%)
# [3] = tested on: HOP-62 (non-small cell lung cancer); assay: NCI-60 SRB cytotoxicity screen; assay type: cell-based; conditions: Homo sapiens; HOP-62, single dose 10 μM; read-out: growth inhibition (GI%)
# [4] = tested on: HOP-92 (non-small cell lung cancer); assay: NCI-60 SRB cytotoxicity screen; assay type: cell-based; conditions: Homo sapiens; HOP-92, single dose 10 μM; read-out: growth inhibition (GI%)
# [5] = tested on: NCI-H226 (non-small cell lung cancer); assay: NCI-60 SRB cytotoxicity screen; assay type: cell-based; conditions: Homo sapiens; NCI-H226, single dose 10 μM; read-out: growth inhibition (GI%)
# [6] = tested on: NCI-H322M (non-small cell lung cancer); assay: NCI-60 SRB cytotoxicity screen; assay type: cell-based; conditions: Homo sapiens, single dose 10 μM, read-out: growth inhibition (GI%)
# COLO 205 (colon cancer) = assay: NCI-60 SRB cytotoxicity screen; assay type: cell-based; conditions: Homo sapiens; COLO 205, single dose 10 μM; read-out: growth inhibition (GI%)
# HCC-2998 (colon cancer) = assay: NCI-60 SRB cytotoxicity screen; assay type: cell-based; conditions: Homo sapiens; HCC-2998, single dose 10 μM; read-out: growth inhibition (GI%)
# HCT-116 (colon cancer) = assay: NCI-60 SRB cytotoxicity screen; assay type: cell-based; conditions: Homo sapiens; HCT-116, single dose 10 μM; read-out: growth inhibition (GI%)
# HCT-15 (colon cancer) = assay: NCI-60 SRB cytotoxicity screen; assay type: cell-based; conditions: Homo sapiens; HCT-15, single dose 10 μM; read-out: growth inhibition (GI%)
# SF-268 (CNS cancer) = assay: NCI-60 SRB cytotoxicity screen; assay type: cell-based; conditions: Homo sapiens; SF-268, single dose 10 μM; read-out: growth inhibition (GI%)
# SF-295 (CNS cancer) = assay: NCI-60 SRB cytotoxicity screen; assay type: cell-based; conditions: Homo sapiens; SF-295, single dose 10 μM; read-out: growth inhibition (GI%)
# SNB-75 (CNS cancer) = assay: NCI-60 SRB cytotoxicity screen; assay type: cell-based; conditions: Homo sapiens, SNB-75, SNB-75, single dose 10 μM; read-out: growth inhibition (GI%)
# U251 (CNS cancer) = assay: NCI-60 SRB cytotoxicity screen; assay type: cell-based; conditions: Homo sapiens, U-251; U251, single dose 10 μM; read-out: growth inhibition (GI%)
# SK-MEL-2 (melanoma) = assay: NCI-60 SRB cytotoxicity screen; assay type: cell-based; conditions: Homo sapiens; SK-MEL-2, single dose 10 μM; read-out: growth inhibition (GI%)
# UACC-257 (melanoma) = assay: NCI-60 SRB cytotoxicity screen; assay type: cell-based; conditions: Homo sapiens; UACC-257, single dose 10 μM; read-out: growth inhibition (GI%)
# UACC-62 (melanoma) = assay: NCI-60 SRB cytotoxicity screen; assay type: cell-based; conditions: Homo sapiens; UACC-62, single dose 10 μM; read-out: growth inhibition (GI%)
# OVCAR-3 (ovarian cancer) = assay: NCI-60 SRB cytotoxicity screen; assay type: cell-based; conditions: Homo sapiens; OVCAR-3, single dose 10 μM; read-out: growth inhibition (GI%)
# OVCAR-4 (ovarian cancer) = assay: NCI-60 SRB cytotoxicity screen; assay type: cell-based; conditions: Homo sapiens; OVCAR-4, single dose 10 μM; read-out: growth inhibition (GI%)
# OVCAR-5 (ovarian cancer) = assay: NCI-60 SRB cytotoxicity screen; assay type: cell-based; conditions: Homo sapiens; OVCAR-5, single dose 10 μM; read-out: growth inhibition (GI%)
# OVCAR-8 (ovarian cancer) = assay: NCI-60 SRB cytotoxicity screen; assay type: cell-based; conditions: Homo sapiens; OVCAR-8, single dose 10 μM; read-out: growth inhibition (GI%)
# SK-OV-3 (ovarian cancer) = assay: NCI-60 SRB cytotoxicity screen; assay type: cell-based; conditions: Homo sapiens; SK-OV-3, single dose 10 μM; read-out: growth inhibition (GI%)
# RXF 393 (renal cancer) = assay: NCI-60 SRB cytotoxicity screen; assay type: cell-based; conditions: Homo sapiens; RXF 393, single dose 10 μM; read-out: growth inhibition (GI%)
# UO-31 (renal cancer) = assay: NCI-60 SRB cytotoxicity screen; assay type: cell-based; conditions: Homo sapiens; UO-31, single dose 10 μM; read-out: growth inhibition (GI%)
# PC-3 (prostate cancer) = assay: NCI-60 SRB cytotoxicity screen; assay type: cell-based; conditions: PC-3, single dose 10 μM; read-out: growth inhibition (GI%)
# DU-145 (prostate cancer) = assay: NCI-60 SRB cytotoxicity screen; assay type: cell-based; conditions: Homo sapiens; DU-145, single dose 10 μM; read-out: growth inhibition (GI%)
# [7] = tested on: MDA-MB-231/ATCC (breast cancer); assay: NCI-60 SRB cytotoxicity screen; assay type: cell-based; conditions: Homo sapiens, MDA-MB-231, read-out: growth inhibition (GI%);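 further: growth inhibition in percent at a single 10 µM dose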
# HS 578T (breast cancer) = assay: NCI-60 SRB cytotoxicity screen; assay type: cell-based; conditions: Homo sapiens, single dose 10 μM, read-out: growth inhibition (GI%)
# T-47D (breast cancer) = assay: NCI-60 SRB cytotoxicity screen; assay type: cell-based; conditions: Homo sapiens, T47D, single dose 10 μM, read-out: growth inhibition (GI%)
# [8] = tested on: 60 cancer cell lines (NCI); assay: NCI-60 single-dose screen, overall verdict over the panel; assay type: cell-based; conditions: single dose 10 μM, whole panel
# Experimental: The cytotoxic activity of the synthesized quinoline derivatives was determined by the national cancer institute (NCI, Bethesda, Maryland, USA) against 60 different cancer cell lines at a single high dose (10^−5 M) in the full NCI 60 cell panel using the sulforhodamine B assay for cell viability evaluation. In summary, 5 × 10^3 cells were in 96-well plate and incubated in complete media for 24 h. Cells were treated with 100 μL of media containing each newly synthesized compound. After drug exposure, cells were fixed by replacing media with 150 μL of 10% TCA and incubated at 4 °C for 1 h. The TCA solution was removed, and the cells were washed 5 times with distilled water. Aliquots of 70 μL SRB solution (0.4% w/v) were added and incubated in a dark place at room temperature for 10 min. The plates were washed 3 times with 1% acetic acid and allowed to air-dry overnight. Then, 150 μL of TRIS (10 mM) was added to dissolve protein-bound SRB stain. The absorbance was measured at 540 nm.% Cytotoxicity = [1 − (AVx/AVNC)] × 100where AVx denotes the average absorbance of the sample well and AVNC denotes the average absorbance of the negative control.
SMILES,inhibition at 10 µM (CCRF-CEM (leukemia)),inhibition at 10 µM (HL-60(TB) (leukemia)),inhibition at 10 µM (K-562 (leukemia)),inhibition at 10 µM (RPMI-8226 (leukemia)),inhibition at 10 µM [1],inhibition at 10 µM [2],inhibition at 10 µM [3],inhibition at 10 µM [4],inhibition at 10 µM [5],inhibition at 10 µM [6],inhibition at 10 µM (COLO 205 (colon cancer)),inhibition at 10 µM (HCC-2998 (colon cancer)),inhibition at 10 µM (HCT-116 (colon cancer)),inhibition at 10 µM (HCT-15 (colon cancer)),inhibition at 10 µM (SF-268 (CNS cancer)),inhibition at 10 µM (SF-295 (CNS cancer)),inhibition at 10 µM (SNB-75 (CNS cancer)),inhibition at 10 µM (U251 (CNS cancer)),inhibition at 10 µM (SK-MEL-2 (melanoma)),inhibition at 10 µM (UACC-257 (melanoma)),also measured
"CCc1cccc2cc(-c3cc(-c4ccc(OC)c(OC)c4)[nH]c(=S)c3C#N)c(Cl)nc12 [Compound 5b, 4-(2-Chloro-8-ethylquinolin-3-yl)-6-(3,4-dimethoxyphenyl)-2-thioxo-1,2-dihydropyridine-3-carbonitrile]",28.8%,< 10%,28%,29.2%,19.7%,23.9%,< 10%,47.4%,20.3%,< 10%,< 10%,< 10%,< 10%,12.2%,32.2%,16.5%,10.8%,13.7%,< 10%,< 10%,inhibition at 10 µM (UACC-62 (melanoma)): 19.1%; inhibition at 10 µM (OVCAR-3 (ovarian cancer)): < 10%; inhibition at 10 µM (OVCAR-4 (ovarian cancer)): 22.4%; inhibition at 10 µM (OVCAR-5 (ovarian cancer)): < 10%; inhibition at 10 µM (OVCAR-8 (ovarian cancer)): 31.5%; inhibition at 10 µM (SK-OV-3 (ovarian cancer)): < 10%; inhibition at 10 µM (RXF 393 (renal cancer)): 24.6%; inhibition at 10 µM (UO-31 (renal cancer)): 23.3%; inhibition at 10 µM (PC-3 (prostate cancer)): 21.3%; inhibition at 10 µM (DU-145 (prostate cancer)): 20.2%; inhibition at 10 µM [7]: 19.1%; inhibition at 10 µM (HS 578T (breast cancer)): 23.1%; inhibition at 10 µM (T-47D (breast cancer)): 41.1%; cytotoxic activity over the cell lines (in words) [8]: slight cytotoxic activity; melting point: 280 to 282 °C
"CCc1cccc2cc(-c3cc(-c4ccc(OC)cc4)[nH]c(=S)c3C#N)c(Cl)nc12 [Compound 5a, 4-(2-Chloro-8-ethylquinolin-3-yl)-6-(4-methoxyphenyl)-2-thioxo-1,2-dihydropyridine-3-carbonitrile]",< 10%,14.9%,28.8%,15.7%,< 10%,10.3%,< 10%,36.2%,15.9%,17.6%,< 10%,< 10%,14.8%,< 10%,23.1%,13.8%,21.6%,< 10%,< 10%,< 10%,inhibition at 10 µM (UACC-62 (melanoma)): 20.5%; inhibition at 10 µM (OVCAR-3 (ovarian cancer)): < 10%; inhibition at 10 µM (OVCAR-4 (ovarian cancer)): 24.5%; inhibition at 10 µM (OVCAR-5 (ovarian cancer)): < 10%; inhibition at 10 µM (OVCAR-8 (ovarian cancer)): 10.1%; inhibition at 10 µM (SK-OV-3 (ovarian cancer)): < 10%; inhibition at 10 µM (RXF 393 (renal cancer)): 20.6%; inhibition at 10 µM (UO-31 (renal cancer)): 19.7%; inhibition at 10 µM (PC-3 (prostate cancer)): < 10%; inhibition at 10 µM (DU-145 (prostate cancer)): < 10%; inhibition at 10 µM [7]: 18.1%; inhibition at 10 µM (HS 578T (breast cancer)): 19.8%; inhibition at 10 µM (T-47D (breast cancer)): 12.7%; cytotoxic activity over the cell lines (in words) [8]: slight cytotoxic activity; melting point: 290 to 292 °C
"CCc1cccc2cc(-c3cc(-c4ccc(OC)c(OC)c4)[nH]c(=O)c3C#N)c(Cl)nc12 [Compound 4b, 4-(2-Chloro-8-ethylquinolin-3-yl)-6-(3,4-dimethoxyphenyl)-2-oxo-1,2-dihydropyridine-3-carbonitrile]",< 10%,< 10%,20%,< 10%,< 10%,14.2%,< 10%,11.3%,< 10%,< 10%,< 10%,< 10%,< 10%,< 10%,16.1%,< 10%,29.6%,< 10%,< 10%,< 10%,inhibition at 10 µM (UACC-62 (melanoma)): < 10%; inhibition at 10 µM (OVCAR-3 (ovarian cancer)): < 10%; inhibition at 10 µM (OVCAR-4 (ovarian cancer)): 14%; inhibition at 10 µM (OVCAR-5 (ovarian cancer)): < 10%; inhibition at 10 µM (OVCAR-8 (ovarian cancer)): < 10%; inhibition at 10 µM (SK-OV-3 (ovarian cancer)): < 10%; inhibition at 10 µM (RXF 393 (renal cancer)): 33.8%; inhibition at 10 µM (UO-31 (renal cancer)): < 10%; inhibition at 10 µM (PC-3 (prostate cancer)): < 10%; inhibition at 10 µM (DU-145 (prostate cancer)): < 10%; inhibition at 10 µM [7]: < 10%; inhibition at 10 µM (HS 578T (breast cancer)): 10.3%; inhibition at 10 µM (T-47D (breast cancer)): 16.6%; cytotoxic activity over the cell lines (in words) [8]: mild cytotoxic activity; melting point: 280 to 282 °C
"CCc1cccc2cc(-c3cc(-c4ccc(F)cc4)[nH]c(=S)c3C#N)c(Cl)nc12 [Compound 5d, 4-(2-Chloro-8-ethylquinolin-3-yl)-6-(4-fluorophenyl)-2-thioxo-1,2-dihydropyridine-3-carbonitrile]",< 10%,< 10%,29.3%,23%,< 10%,19.6%,< 10%,11.4%,25.9%,12.4%,< 10%,< 10%,< 10%,14.8%,21%,12.3%,39.1%,< 10%,< 10%,< 10%,inhibition at 10 µM (UACC-62 (melanoma)): 25.7%; inhibition at 10 µM (OVCAR-4 (ovarian cancer)): 13.3%; inhibition at 10 µM (OVCAR-5 (ovarian cancer)): < 10%; inhibition at 10 µM (OVCAR-8 (ovarian cancer)): < 10%; inhibition at 10 µM (SK-OV-3 (ovarian cancer)): 20.9%; inhibition at 10 µM (RXF 393 (renal cancer)): < 10%; inhibition at 10 µM (UO-31 (renal cancer)): 40.1%; inhibition at 10 µM (PC-3 (prostate cancer)): 4.57%; inhibition at 10 µM [7]: 31.2%; inhibition at 10 µM (HS 578T (breast cancer)): 18.2%; inhibition at 10 µM (T-47D (breast cancer)): 21.1%; cytotoxic activity over the cell lines (in words) [8]: slight cytotoxic activity; melting point: 235 to 237 °C
